Experimental data published in patent publication US6369109B1, “Betulinic acid and derivatives thereof useful for the treatment of neuroectodermal tumor” (Deutsches Krebsforschungszentrum Stiftung des Offentlichen …, priority 1998, dated 2002).
“Also recorded” adds a separate entry of the source. Residues, ends and D or L forms follow the SMILES beside them. *: point of attachment. Cbz = O=C(OCc1ccccc1)*; CH2F = FC*

Key:
[1] = tested on: isolated nuclei with mitochondria from SHEP cells; test: Cell-free system of apoptosis: nuclear fragmentation of isolated nuclei; type: biochemical, human; conditions: for effect of inhibitor on betulinic acid-induced fragmentation of nuclei / effect of inhibitor on nuclear fragmentation by mitochondria from drug-pretreated cells / effect of inhibitor on DNA fragmentation by supernatants from betulinic acid-treated mitochondria: 50 μM bongkrekic acid or 60 μM zVAD-fmk; for effect of inhibitor on DNA fragmentation by supernatants from betulinic acid-treated mitochondria: FIG. 10B
Procedure: (§1) For determination of nuclear fragmentation, nuclei (10^3/μl) were incubated with mitochondria (1 μg/μl) in buffer D (10 mM HEPES, pH 7.4, 50 mM NaCl, 2 mM MgCl2, 5 mM EGTA, 1 mM DDT, 2 mM ATP, 10 mM phosphocreatine, 50 μg/ml creatine kinase, 10 μM cytochalasin B) for 2 h at 37° C. Nuclei were stained with propidium iodide ([…]) and analyzed by flow cytometry. For determination of caspase activation, cytosolic extracts (2 μg/μl) were incubated with mitochondria (1 μg/μl), cytochrome c (0.1-100 μM) or AIF-containing mitochondrial supernatant (0.5 μg/μl) in buffer D for 2 h at 37° C. Partially purified AIF (cytochrome c-free) was prepared as previously described (0.5 mg/ml, Susin et al., 1997, J. Exp. Med. 186, 5-37; Susin et al., 1996, J. Exp. Med. 184, 1331-41). Proteins were separated by 15% SDS-PAGE and Western blot analysis was performed as described above.
Mitochondria isolated from SHEP cells, transfected with bcl-2 or bcl-XL or a neomycin resistance vector only, were incubated for 6 h with nuclei and 0.1-10 μg/ml betulinic acid (FIG. 8A) or 5 mM atractyloside (FIG. 8B) in the presence or absence of 50 μM bongkrekic acid or 60 μMZ-VAD-fnk. Nuclei incubated with either mitochondria from vector only cells or with betulinic acid were used as control. Nuclear apoptosis was determined by FACS analysis of propidium iodide stained DNA content.
SHEP cells transfected with bcl-2 or bcl-XL or a neomycin resistance vector only were treated with 10 μg/ml betulinic acid or 5 mM atractyloside for 6-24 h (FIG. 8C). Mitochondria were isolated and incubated with nuclei in the presence or absence of 50 μM bongkrekic acid or 60 μMZ-VAD-fmk. Nuclei incubated with either mitochondria front vector only cells or with betulinic acid were used as control. Nuclear apoptosis was determined by FACS analysis of propidium iodide stained DNA content.
Mitochondria isolated from SHEP cells transfected with bcl-2, Bcl-XL or a neomycin resistance vector only were treated with 10 μg/ml betulinic acid or 5 mM atractyloside for 0.5 h in the presence or absence of 50 μM bongkrekic acid or 60 μM zVAD-fmk. Mitochondrial supernatants obtained by high speed centrifugation were incubated with nuclei for 2 h at 37° C. Nuclei incubated with supernatants of untreated mitochondria were used as control.. Nuclear apoptosis was determined by FACS analysis of propidium iodide stained DNA content.
as §1, with “cytometry (Susin et al., 1997 Exp. Cell Res. 236:397-403).” for “cytometry.”, “(10” for “(0.1-100”, “C.” for “C. Partially purified AIF (cytochrome c-free) was prepared as previously described (0.5 mg/ml, Susin et al., 1997, J. Exp. Med. 186, 5-37; Susin et al., 1996, J. Exp. Med. 184, 1331-41).”, “before.” for “above.”
SHEP cells transfected with Bcl-2 or BCl-XL or a neomycin resistance vector only (Neo) were treated with 0.5 μg/ml Doxorubicin or 10 μg/ml Betulinic acid for 48 h (A) or 24 h (B and C). Cells transfected with a neomycin resistance vector only (Neo) were treated in the presence or absence of 50 μm BA or 60 μm zVAD-fmk. Nuclear apoptosis was determined by FACS analysis or propidium iodide-stained DNA content in intact cells (A) or in a CFS incubating isolated nuclei with mitochondria from cells treated with Doxo or betulinic acid (C). ΔΨm was determined by staining cells with the potential-sensitive fluorochrome DiOC6(3) (B).

[2] = tested on: mitochondria isolated from SHEP cells; test: Mitochondrial membrane potential of isolated mitochondria (DiOC6(3)); type: biochemical, human; conditions: FIG. 7, 12D; for effect of inhibitor on betulinic acid-induced Δψm loss in isolated mitochondria: 50 μM bongkrekic acid or 60 μM zVAD-fmk
Procedure: For isolation of mitochondria, cells (3×10^5 per sample) were washed twice with ice-cold PBS and resuspended with five volumes of buffer A (50 mM Tris, 1 mM EGTA, 5 mM 2-mercaproethanol, 0.2% BSA, 10 mM KH2PO4, pH 7.6, 0.4 M sucrose) and allowed to swell on ice for 20 min. Cells were homogenized with 30 strokes of a Teflon homogenizer and centrifuged at 10000 g for 10 min at 4° C. The resulting pellets were resuspended in buffer B (10 mM KH2PO4, pH 7.2, […] mannitol, 0.1% BSA). Mitochondria were separated by sucrose gradient (lower layer: 1.6 M sucrose, 10 mM KH2PO4, pH 7.5, 0.1% BSA; upper layer: 1.2 M sucrose, 10 mM KH2PO4, pH 7.5, 0.1% BSA). Interphases containing mitochondria were washed with buffer B at 18000 g for 10 min at 4° C. and the resulting mitochondrial pellets were resuspended in buffer B. For preparation of cytosolic extracts, cells (1×10^8 per sample) were washed twice with ice-cold PBS, resuspended with one volume of buffer A and allowed to swell on ice for 20 min. Cells were homogenized with 30 strokes of a Dounce homogenizer and centrifuged at 15000×g for 15 min ax 4° C. The protein concentration of mitochondria or cytosolic extracts was determined by Bradford method (Bio-Rad). For isolation of nuclei, cells were washed twice in ice-cold PBS, resuspended in 10 volumes of buffer C (10 mM PIPES, pH 7.4, 10 mM KCl, 2 mM MgCl2, 1 mM DDT, 1 mM PMSF, 10 μM cytochalasin B), allowed to swell on ice for 20 min and homogenized using a Teflon homogenizer. Homogenates were layered over 30% sucrose in buffer C and centrifuged at 800 g for 10 min. The resulting nuclear pellets were resuspended in buffer C and washed three times. Nuclei were scored at −80° C. in aliquots of 10^8 nuclei/ml until required. AIF-containing mitochondrial supernatant was prepared as described in Susin et aL, 1997, J. Exp. Med. 186, 5-37 and Susin et al., 1996, J. Exp. Med. 184, 1331-41.
Mitochondria (5×10^5/ml) were treated with 10 μg/ml betulinic acid for 30 min, incubated with 3,3′-dihexyloxacarbocyanide iodide (DiOC6(3), 40 nM, Molecular Probes, Inc., Eugene, Oreg.) for 15 min at 37° C. and analyzed on a flow cytometer (FACS Vantage, Becton Dickinson). As a control, cells were treated with the uncoupling agent carbonyl cyanide m-chlorophenylhydrazone (mCICCP, 200 μM, Sigma).

Row | Compound | effect of inhibitor on betulinic acid-induced fragmentation of nuclei ([1]; FIG. 8A) | effect of inhibitor on nuclear fragmentation by mitochondria from drug-pretreated cells ([1]; FIG. 8C, 12C) | effect of inhibitor on DNA fragmentation by supernatants from betulinic acid-treated mitochondria [1] | effect of inhibitor on betulinic acid-induced Δψm loss in isolated mitochondria [2] | nuclear fragmentation by mitochondria isolated from drug-pretreated cells ([1]; 10 μg/ml betulinic acid or 0.5 μg/ml doxorubicin, FIG. 8C, 12C) | nuclear DNA fragmentation, mitochondria plus nuclei plus drug ([1]; Neo control mitochondria, 0.1-10 μg/ml betulinic acid or 5 mM atractyloside, 6 h, FIG. 8A, 8B) | Δψm of isolated mitochondria ([2]; mitochondria from wild type or vector-only SHEP cells, 10 μg/ml betulinic acid, 30 min)
1 | COC(=O)C[C@H](NC(=O)[C@H](C)NC(=O)[C@@H](NC(=O)OCc1ccccc1)C(C)C)C(=O)CF [zVAD-fmk, benzyloxycarbonyl-Val-Ala-Asp-Fluoromethylketone] (Cbz-Val-Ala-Asp(OMe)-CH2F) | inhibited | again blocked | also blocked | did not interfere; also recorded: not blocked |  |  | 
2 | CO[C@H](C/C=C\C=C\CC/C=C/C[C@H](C)/C=C/C(=C\C(=O)O)CC(=O)O)/C(C)=C\C=C(/C)C(=O)O [bongkrekic acid] | inhibited | again blocked | also blocked | inhibited |  |  | 
3 | COc1cccc2c1C(=O)c1c(O)c3c(c(O)c1C2=O)C[C@@](O)(C(=O)CO)C[C@@H]3O[C@H]1C[C@H](N)[C@H](O)[C@H](C)O1 [doxorubicin] |  |  |  |  | induced nuclear DNA fragmentation | No DNA fragmentation was observed | did not induce mitochondrial perturbations
